Data from US20200378993A1, “MEDICAL USES OF APOLIPOPROTEIN A AND ACTIVATORS THEREOF” (FUNDACIÓN IMDEA ALIMENTACIÓN, priority 2017, published 2020).

Key:
Assay type in all cases: cell-based, human
caveolin-1 = assay: Caveolin-1 immunodetection by Western blot; conditions: RVX-208 (30 μM) versus DMSO carrier
Experimental: FIG. 7. A) Proliferation curve in a viability assay carried out by means of XCELLigence technology. Growth of DLD1 cells treated with DMSO as the drug carrier and with Rvx-208 (30 μM). The significant differences existing in the slope of the graph, and therefore in the growth dynamics of the treated cells are shown in the right panel (****p-value<0.0001). B) Migration and invasion assays. The method followed was the same as the one described in FIG. 2 (*p-value=0.0407; ****p-value<0.0001). C) Expression levels of proteins E-cadherin and Vimentin in the presence and absence of Rvx-208. Analysis performed by means of quantitative PCR. The relative expression levels normalized with respect to the untreated control are shown. D) ABCA1, ApoA1, caveolin-1, and α-tubulin immunodetection by means of Western blot. α-tubulin acts as load control. The results of the cells treated with Rvx-208 (30 μM) or with the DMSO carrier are shown. E) Cholesterol flux in cells treated with Rvx-208. […]
The inventors were able to confirm said results based on the treatment of DLD1 cells expressing ABCA1 with RVX-208 under the conditions already described in detail in Example 3. […] The levels of caveolin-1, a protein whose increased levels have been associated with increases in cell migration and invasion, were also analyzed in this experiment.

apolipoprotein A1 = assay: ApoA1 immunodetection by Western blot; conditions: RVX-208 (30 μM) versus DMSO carrier
Experimental: FIG. 7. A) Proliferation curve in a viability assay carried out by means of XCELLigence technology. Growth of DLD1 cells treated with DMSO as the drug carrier and with Rvx-208 (30 μM). The significant differences existing in the slope of the graph, and therefore in the growth dynamics of the treated cells are shown in the right panel (****p-value<0.0001). B) Migration and invasion assays. The method followed was the same as the one described in FIG. 2 (*p-value=0.0407; ****p-value<0.0001). C) Expression levels of proteins E-cadherin and Vimentin in the presence and absence of Rvx-208. Analysis performed by means of quantitative PCR. The relative expression levels normalized with respect to the untreated control are shown. D) ABCA1, ApoA1, caveolin-1, and α-tubulin immunodetection by means of Western blot. α-tubulin acts as load control. The results of the cells treated with Rvx-208 (30 μM) or with the DMSO carrier are shown. E) Cholesterol flux in cells treated with Rvx-208. The inventors were able to confirm said results based on the treatment of DLD1 cells expressing ABCA1 with RVX-208 under the conditions already described in detail in Example 3. […] The levels of caveolin-1, a protein whose increased levels have been associated with increases in cell migration and invasion, were also analyzed in this experiment.

[1] = system: DLD1 cells overexpressing ABCA1; assay: Growth of Matrigel-embedded spheroids; conditions: treatment with Rvx-208; Matrigel-embedded spheroids from DLD1 cells overexpressing ABCA1
Description: FIG. 8: A) Growth of spheroids derived from control cells and cells overexpressing ABCA1. The top panels correspond to the control treatment (carrier), the bottom panels correspond to treatment with Rvx-208. The growth curves represent the mean volume of a total of 30 spheroids per cell line. The inventors were able to confirm said results based on the treatment of DLD1 cells expressing ABCA1 with RVX-208 under the conditions already described in detail in Example 3. In this case, the DLD1 cells overexpressing ABCA1 were pre-treated for 72 hours before the start of the experiment with RVX-208 at a concentration of 30 μm and were subjected to a treatment with 15 μM of RVX-208 during the development of the experiments. […] The levels of caveolin-1, a protein whose increased levels have been associated with increases in cell migration and invasion, were also analyzed in this experiment.

DLD1 cells = assay: Migration assay (Corning BioCoat Control plates); conditions: RVX-208 30 μm 72 hours then 15 μM
Experimental: Cell viability and proliferation assays were carried out by means of XCELLigence technology (ACEA Biosciences, Inc.) following the manufacturer's indications. Migration and invasion assays were carried out in Corning® BioCoat™ Control plates (#354578) and Corning® BioCoat™ Matrigel plates (#354480), respectively, following the manufacturer's indications. For the rescue assays, the cells were treated for 72 hours with 30 μM apabetalone (RVX-208; Biovision). Antibodies: ABCA1 (Ab18180, Abcam. 1:500); caveolin-1 (Ab2910, Abcam. 1:1000); α-tubulin (T9026, Sigma 1:1000). The DLD1 cells correspond to a human colorectal cancer-derived adherent epithelial cell line (ATCC® CCL-221™). The stable cell lines capable of overexpressing ABCA1 were obtained by means of transduction with genetically modified lentivirus.
Following the same treatment regimen, the inventors carried out migration and invasion assays.
The same assays were repeated by replacing ApoA1 with a treatment with RVX-208. In this case, DLD1 cells were pre-treated for 72 hours before the start of the experiment with RVX-208 at a concentration of 30 μm and were subjected to a treatment with 15 μM of RVX-208 during the development of the experiments.

[2] = system: D1D1 cell lines expressing increased ApoA1 levels (D_ApoA1); assay: Cell viability and proliferation (xCELLigence) with ShApoA1/scramble transfection; conditions: 30 μM RVX-208, ApoA1 expression not inhibited (Scr+Rvx-208); D_ApoA1 cells
Experimental: FIG. 9: A) Proliferation curve in a viability assay carried out by means of XCELLigence technology. Growth of DLD1 cells treated with DMSO as the drug carrier and with Rvx-208 (30 μM). Control cells (scramble, SCR) are shown in black. Cells transfected with anti-ApoA1 short hairpin are shown in gray. The significant differences existing in the values of the slope of the graphs on the left-hand side, and therefore in the growth dynamics of the treated cells, are shown in the right panels (*p-value=0.0471; **p-value=0.0067; ****p-value<0.0001). B) Invasion assays in cells with silenced ApoA1 expression. For the purpose of confirming that the effects of RVX-208 in cell phenotype recovery were due to the increase in ApoA-1 expression, the inventors inhibited the expression of said protein by means of transfection of a complementary small RNA, ShApoA1 (FIG. 9). Twenty-four hours after transfection with ShApoA1 expression vector, the inventors started treatment with 30 μM of RVX-208. Cell viability and proliferation in DLD1 cells (D_NoORF) and D1D1 cell lines expressing increased ApoA1 levels (D_ApoA1 ) were analyzed with the xCELLigence system.

With `COc1cc(OC)c2c(=O)[nH]c(-c3cc(C)c(OCCO)c(C)c3)nc2c1` [RVX-208, 2-(4-(2-hydroxyethoxy)-3,5-dimethylphenyl)-5,7-dimethoxyquinazolin-4(3H)-one] the caveolin-1 protein levels (caveolin-1) was “capable of reducing the levels of said protein”, the “apolipoprotein A1 expression levels” value (apolipoprotein A1) was “increase in apolipoprotein A1 expression levels” and the “growth of three-dimensional structures (spheroids)” value [1] was “slows down the growth”. For the same compound, the migratory capacity (DLD1 cells) was “significant decreases the migratory and invasive capacity” and the proliferation indices [2] was “significantly lower”.
